Marks after values point to notes of the source that are not given here.
Columns and labels:
[1] = biological target: T1, hMC1bR (Homo sapiens, UniProt Q01726); assay: Melanocortin receptor membrane binding assay (125I-NDP-alpha-MSH)
Protocol: (§1) The membrane binding assay was used to identify competitive inhibitors of ^125I-NDP-alpha-MSH binding to cloned human MCRs expressed in mouse L- or Chinese hamster ovary (CHO)-cells.
(§2) Cell lines expressing melanocortin receptors were grown in T-180 flasks containing selective medium of the composition: 1 L Dulbecco's modified Eagles Medium (DMEM) with 4.5 g […], 25 mM Hepes, without sodium pyruvate, (Gibco/BR1); 100 ml 10% heat-inactivated fetal bovine serum (Sigma); 10 mL 10,000 unit/mL penicillin & 10,000 μg/mL streptomycin (Gibco/BR1); 10 ml 200 mM L-glutamine (Gibco/BR1); 1 mg/mL geneticin (G418) (Gibco/BR1). The cells were grown at 37° C. with CO2 and humidity control until the desired cell density and cell number was obtained.
(§3) The medium was poured off and 10 mls/T-180 flask of enzyme-free dissociation media (Specialty Media Inc.) was added. The cells were incubated at 37° C. for 10 min or until cells sloughed off when flask was banged against hand.
(§4) The cells were harvested into 200 mL centrifuge tubes and spun at 1000 rpm, 4° C., for 10 min. The supernatant was discarded and the cells were resuspended in 5 mls/monolayer membrane preparation buffer having the composition: 10 mM Tris pH 7.2-7.4; 4 μg/mL Leupeptin (Sigma); 10 μM Phosphoramidon (Boehringer Mannheim); 40 μg/mL Bacitracin (Sigma); 5 μg/mL Aprotinin (Sigma); 10 mM Pefabloc (Boehringer Mannheim). The cells were homogenized with motor-driven dounce (Talboy setting 40), using 10 strokes and the homogenate centrifuged at 6,000 rpm, 4° C., for 15 min.
(§5) The pellets were resuspended in 0.2 mls/monolayer membrane prep buffer and aliquots were placed in tubes ([…]) and quick frozen in liquid nitrogen and then stored at −80° C.
(§6) Test compounds or unlabelled NDP-α-MSH was added to 100 μL of membrane binding buffer to a final concentration of 1 μM. The membrane binding buffer had the composition: 50 mM Tris pH 7.2; 2 mM CaCl2; 1 mM MgCl2; 5 mM KCl; 0.2% BSA; 4 μg/mL Leupeptin (SIGMA); 10 μM Phosphoramidon (Boehringer Mannheim); 40 μg/mL Bacitracin (SIGMA); 5 μg/mL Aprotinin (SIGMA); and 10 mM Pefabloc (Boehringer Mannheim). One hundred μL of membrane binding buffer containing 10-40 μg membrane protein was added, followed by […]. The resulting mixture was vortexed briefly and incubated for 90-120 min at room temp while shaking.
(§7) The mixture was filtered with Packard Microplate 196 filter apparatus using Packard Unifilter 96-well GF/C filter with 0.1% polyethyleneimine (Sigma). The filter was washed (5 times with a total of 10 mL per well) with room temperature of filter wash having the composition: 50 mM Tris-HCl pH 7.2 and 20 mM NaCl. […] The top was sealed and the radioactivity quantitated in a Packard Topcount Microplate Scintillation counter.

[2] = biological target: T2, hMC4R (Homo sapiens, UniProt P32245); assay: as above
T2 construct: expressed in transfected cells; host or cells: CHO-, L- or other eukaryotic cells
Protocol: as §1, §2, §3, §4, §5, §6, §7

[3] = biological target: T3, hMC5R (Homo sapiens, UniProt P33032); assay: as above
T3 construct: expressed in transfected cells; host or cells: CHO-, L- or other eukaryotic cells
Protocol: as §1, §2, §3, §4, §5, §6, §7

[4] = biological target: T4, hMC3R (Homo sapiens, UniProt P41968); assay: as above
T4 construct: expressed in transfected cells; host or cells: CHO-, L- or other eukaryotic cells
Protocol: The cells were grown at 37° C. with CO2 and humidity control until the desired cell density and cell number was obtained.

[5] = biological target: T1, hMC1bR; assay: cAMP functional assay (agonist); type: cell-based
Protocol: (§8) Cells (for example, CHO— or L-cells or other eukaryotic cells) expressing a human melanocortin receptor (see e.g. Yang-YK; Ollmann-MM; Wilson-BD; Dickinson-C; Yamada-T; Barsh-GS; Gantz-I; Mol-Endocrinol. 1997 March; 11(3): 274-80) were dissociated from tissue culture flasks by rinsing with Ca and Mg free phosphate buffered saline (14190-136, Life Technologies, Gaithersburg, Md.) and detached following 5 min incubation at 37° C. with enzyme free dissociation buffer (S-014-B, Specialty Media, Lavellette, N.J.). Cells were collected by centrifugation and resuspended in Earle's Balanced Salt Solution (14015-069, Life Technologies, Gaithersburg, Md.) with additions of 10 mM HEPES pH 7.5, 5 mM MgCl2, 1 mM glutamine and 1 mg/ml bovine serum albumin. Cells were counted and diluted to 1 to 5×10^6/mL. The phosphodiesterase inhibitor 3-isobutyl-1-methylxanthine was added to cells to 0.6 mM.
(§9) Agonist Assay: Test compounds were diluted in dimethylsulfoxide (DMSO) (10^−5 to 10^−10 M) and 0.1 volume of compound solution was added to 0.9 volumes of cell suspension; the final DMSO concentration was […]. After room temperature incubation for 45 min, cells were lysed by incubation at 100° C. for 5 min to release accumulated cAMP.
(§10) cAMP was measured in an aliquot of the cell lysate with the Amersham (Arlington Heights, Ill.)
(§11) cAMP detection assay (RPA556). The amount of cAMP production which resulted from an unknown compound was compared to that amount of cAMP produced in response to alpha-MSH which was defined as a 100% agonist. The EC50 is defined as the compound concentration which results in half maximal stimulation, when compared to its own maximal level of stimulation.

[6] = biological target: T5, hMC2R (Homo sapiens, UniProt Q01718); assay: cAMP functional assay (agonist); type: cell-based
T5 construct: expressed in transfected cells; host or cells: CHO-, L- or other eukaryotic cells
Protocol: as §8, §9, §10, §11

[7] = biological target: T2, hMC4R; assay: cAMP functional assay (agonist); type: cell-based
Protocol: as §8, §9, §10, §11

[8] = biological target: T4, hMC3R; assay: cAMP functional assay (agonist); type: cell-based
Protocol: as §8, §9, §10

[9] = biological target: T3, hMC5R; assay: cAMP functional assay (agonist); type: cell-based
Protocol: as §8, §9, §10

[10] = system: ferrets; assay: MC4R associated emesis in ferrets, Compound A and Compound B (Table 1); type: in vivo, ferret; settings: Compound A 60 mg/kg orally; for % Emesis: ferrets; for # of Ferrets: ferrets with emesis/dosed
Protocol: (§12) Food intake (FI) was monitored at 1, 2, 4, and 24, hours after dosing. Body weight (BWT) was measured at the time of dosing and at 24 hours. Any incidence of emesis or abnormal behavior by subjects was recorded. Two studies were combined to generate the data.

[11] = system: ferrets; assay: MC4R associated emesis in ferrets, Compound A and Compound F (Table 2); type: in vivo, ferret; settings: Compound A (10 mg/kg); for % Emesis: ferrets; for # of Ferrets: ferrets with emesis/dosed
Protocol: FIG. 3. […] All food intake data were analyzed by two-tailed T-TEST.
as §12

T1 sequence (Q01726 whole entry): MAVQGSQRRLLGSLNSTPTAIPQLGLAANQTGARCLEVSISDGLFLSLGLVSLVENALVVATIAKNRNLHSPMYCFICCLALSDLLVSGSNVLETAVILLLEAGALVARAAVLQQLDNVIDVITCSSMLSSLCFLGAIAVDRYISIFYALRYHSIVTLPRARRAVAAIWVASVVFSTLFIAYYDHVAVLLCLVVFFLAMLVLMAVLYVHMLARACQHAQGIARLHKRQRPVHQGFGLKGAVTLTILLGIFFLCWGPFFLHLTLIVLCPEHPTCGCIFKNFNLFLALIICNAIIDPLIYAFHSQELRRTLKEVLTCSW
T2 sequence (P32245 whole entry): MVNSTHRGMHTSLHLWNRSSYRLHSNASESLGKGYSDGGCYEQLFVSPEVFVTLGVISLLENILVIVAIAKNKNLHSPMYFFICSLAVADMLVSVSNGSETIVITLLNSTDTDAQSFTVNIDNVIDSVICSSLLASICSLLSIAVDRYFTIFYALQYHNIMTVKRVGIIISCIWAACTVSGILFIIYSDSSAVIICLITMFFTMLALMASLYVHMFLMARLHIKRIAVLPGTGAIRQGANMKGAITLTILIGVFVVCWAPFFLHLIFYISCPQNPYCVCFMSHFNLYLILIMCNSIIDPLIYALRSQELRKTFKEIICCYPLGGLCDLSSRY
T3 sequence (P33032 whole entry): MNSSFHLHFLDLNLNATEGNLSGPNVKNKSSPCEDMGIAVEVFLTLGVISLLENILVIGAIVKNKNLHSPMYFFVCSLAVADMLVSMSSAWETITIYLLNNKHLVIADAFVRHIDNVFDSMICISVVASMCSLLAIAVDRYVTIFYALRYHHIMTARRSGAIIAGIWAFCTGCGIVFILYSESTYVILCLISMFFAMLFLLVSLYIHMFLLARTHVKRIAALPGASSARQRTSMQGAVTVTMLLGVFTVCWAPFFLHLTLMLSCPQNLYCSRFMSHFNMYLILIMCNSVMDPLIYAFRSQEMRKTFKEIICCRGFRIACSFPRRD
T4 sequence (P41968 whole entry): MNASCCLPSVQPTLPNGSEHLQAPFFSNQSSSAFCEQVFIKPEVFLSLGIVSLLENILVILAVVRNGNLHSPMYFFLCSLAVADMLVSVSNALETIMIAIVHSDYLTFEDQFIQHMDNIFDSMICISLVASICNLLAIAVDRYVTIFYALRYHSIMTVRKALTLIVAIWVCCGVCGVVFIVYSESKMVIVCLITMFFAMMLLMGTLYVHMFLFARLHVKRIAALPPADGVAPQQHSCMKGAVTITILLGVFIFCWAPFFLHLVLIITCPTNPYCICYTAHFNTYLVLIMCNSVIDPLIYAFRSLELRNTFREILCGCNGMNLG
T5 sequence (Q01718 whole entry): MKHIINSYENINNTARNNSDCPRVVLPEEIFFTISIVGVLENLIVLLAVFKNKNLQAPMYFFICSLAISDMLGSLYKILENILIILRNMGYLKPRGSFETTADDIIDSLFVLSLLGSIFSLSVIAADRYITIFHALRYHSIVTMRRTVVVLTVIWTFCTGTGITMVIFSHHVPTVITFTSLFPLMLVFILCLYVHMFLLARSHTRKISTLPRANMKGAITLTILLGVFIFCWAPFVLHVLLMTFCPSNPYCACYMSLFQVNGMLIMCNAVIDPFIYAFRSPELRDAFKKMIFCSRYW
T5 sequence (Q8TCY5 whole entry partner): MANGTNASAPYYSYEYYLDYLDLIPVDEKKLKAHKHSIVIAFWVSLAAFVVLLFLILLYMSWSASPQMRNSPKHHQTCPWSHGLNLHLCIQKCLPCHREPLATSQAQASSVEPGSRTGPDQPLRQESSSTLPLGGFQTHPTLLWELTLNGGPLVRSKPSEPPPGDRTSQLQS

## CC[C@H](NC(C)=O)c1cc(Cl)ccc1C1CCN(C(=O)[C@@H]2CN(C(C)(C)C)C[C@H]2c2ccc(F)cc2F)CC1 [Compound A]
[1]
  IC50: 5600 nM
[1]; IC50 hMC1bR / IC50 hMC4R
  Selectivity Binding IC50 1R/4R: 127.27
[2]
  IC50: 44 nM
[3]
  IC50: 1600 nM
[4]
  IC50: 7200 nM
[5]
  EC50: 1700 nM
[5]; EC50 hMC1bR / EC50 hMC4R
  Selectivity cAMP EC50 1R/4R: 121.43
[6]
  EC50: > 10000 nM
[7]
  EC50: 14 nM
[8]
  EC50: 920 nM
[9]
  EC50: 1400 nM
[10]; 1 hour
  % Emesis: 31%
  # of Ferrets: 4/13
[10]; 2 hours
  % Emesis: 8%
  # of Ferrets: 1/13
[10]; 4 hours
  % Emesis: 69%
  # of Ferrets: 9/13******
[10]; Total, 60 mg/kg
  % Emesis: 77%
[10]; Total
  # of Ferrets: 10/13****
[11]; 1 hour
  % Emesis: 40%
  # of Ferrets: 2/5**
[11]; 2 hours
  % Emesis: 40%
  # of Ferrets: 2/5
[11]; 4 hours
  % Emesis: 60%
  # of Ferrets: 5/5***
[11]; total
  % Emesis: 100%
  # of Ferrets: 5/5*****
